# Marks after values point to notes of the source that are not given here.
# What was measured:
# [1] = test system: Saccharomyces cerevisiae (CBS 2190); assay: Determination of the minimal inhibitor concentration (MIC) in liquid medium; assay type: cell-based; details: S. cerevisiae; liquid medium pH 3.5; OD 96 hours after inoculation
# Method: (§1) Candida albicans was isolated from a commercial beverage, Saccharomyces cerevisiae (CBS 2190) and Zygosaccharomyces bailii (CBS 6708) were obtained from CBS (Centraalbureau voor Schimmelcultures).
# (§2) Yeast cultures were grown in liquid medium (per liter: 5 gram filtered Malt Extract from Oxoid Ltd., England, 40 gram glucose and 5 gram Bacto Peptone from Becton Dickinson, USA, at pH 3.5 prepared according to the manufacturer instructions) in screw-capped tubes for at least 48 hours at 25° C.
# (§3) For the determination of the MIC, liquid medium was prepared as described above with increasing amounts of inhibitor. 200 μl of each inhibitor-comprising medium was transferred to a panel of a sterile 96-well Microtiter plate. Completed well plates were stored at 4° C. until further use. For the inoculation of the inhibitor-containing liquid media 5 μl of a 72 to 84 hours grown culture was used. The optical density (OD) for every composition was measured 96 hours after inoculation.
# Candida albicans [2] = assay: as above; assay type: cell-based; details: C. Albicans; liquid medium pH 3.5; OD 96 hours after inoculation
# Method: as §1, §2, §3
# [3] = test system: Zygosaccharomyces bailii (CBS 6708); assay: as above; assay type: cell-based; details: Z. bailii; liquid medium pH 3.5; OD 96 hours after inoculation
# Method: as §1, §2, §3
# Candida albicans [4] = assay: Combination tests: inhibition of yeast in model beverage; assay type: cell-based; details: C. Albicans, model beverage pH about 3.5, 96 hours
# Method: as §1
# (§4) Inhibition of yeast was evaluated for combinations of EGCG and polylysine or LAE.
# (§5) Yeast cultures were grown in model beverage which contained per litter of demineralised water: 40 g of sucrose, 0.35 g of apple flavour (Givaudan), 8.3 g of apple juice concentrate (Gargill) and 1 g of citric acid. The pH was about 3.5. Cultures were grown in screw-capped tubes for at least 48 hours at 25° C.
# (§6) The tests combining two components were carried out in sterile 96-well Microtiter plates. Model beverage was prepared as described above with increasing amounts of two different inhibitors. The concentrations of each inhibitor were presented in 8 equal concentration steps that ranged from 0 to 1-2 times the estimated MIC value of particular yeast for a particular inhibitor. 200 μl of each medium was transferred to a panel of a sterile 96-well Microtiter plate. Completed well plates were stored at 4° C. until further use. For the inoculation of this test 5 μl of a 72 to 84 hours grown culture was used. The OD for every composition was measured 96 hours after inoculation.
# [5] = test system: Zygosaccharomyces bailii (CBS 6708); assay: as above; assay type: cell-based; details: Z. bailii, model beverage pH about 3.5, 96 hours
# Method: as §1, §4, §5, §6
# Saccharomyces cerevisiae = details: culture medium, WO 2009/031041; cited from earlier work
# Kluyveromyces marxianus = details: culture medium, WO 2009/031041; cited from earlier work
# [6] = test system: Saccharomyces cerevisiae (CBS 2190); assay: Combination tests: inhibition of yeast in model beverage; assay type: cell-based; details: S. cerevisiae, model beverage pH about 3.5, 96 hours
# Method: as §1, §4, §5, §6
# [7] = EGCG 0.07 wt. %, average of two experiments
Compound,MIC [1],MIC (Candida albicans [2]),MIC [3],Maximum OD (Candida albicans [4]; ε-polylysine 0.0005 wt. %),Maximum OD ([5]; ε-polylysine 0.0005 wt. %),MIC (Saccharomyces cerevisiae),MIC (Kluyveromyces marxianus),Maximum OD ([6]; LAE 0.001 wt. %),Maximum OD (Candida albicans [4]; LAE 0.002 wt. %),Maximum OD ([5]; LAE 0.002 wt. %),"Maximum OD [6, 7]",Maximum OD (Candida albicans [4]; [7]),"Maximum OD [5, 7]"
ε-Polylysine,30-80 ppm,>40* ppm,>40* ppm,0.32,0.40,,,,,,,,
"CCCCCCCCCCCC(=O)N[C@@H](CCCN=C(N)N)C(=O)OCC [LAE, lauric arginate]",30-80 ppm,>70* ppm,>70* ppm,,,24 ppm,7 ppm,0.19,0.30,0.38,,,
"O=C(O[C@@H]1Cc2c(O)cc(O)cc2O[C@@H]1c1cc(O)c(O)c(O)c1)c1cc(O)c(O)c(O)c1 [EGCG, Epigallocatechin gallate]",5000 ppm,9000 ppm,2000 ppm,,,,,,,,0.28*,0.40*,0.28*

# — US20130259999A1, “METHOD FOR INHIBITING YEAST ACTIVITY” (PURAC BIOCHEM B.V., priority 2010, published 2013)
